This is an account of results in publication PMC3382171 (PLoS ONE, 2012).

Common to all, as to test: biochemical
What all share (set-up): Invitrogen SelectScreen kinase panel, percent inhibition at 1 uM, ATP at Km
Holding throughout (conditions): read-out: Invitrogen KSS %Inh at 1 µM

One experiment concerns the target LCK (Homo sapiens, UniProt P06239). The procedure, abridged: (§1)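 Commercial kinase panel screens run with ATP at the Km for each kinase. Compounds tested at 1 µM final concentration; values are % inhibition of phosphorylation relative to control.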
The target of the next experiment is MET (cMet) (Homo sapiens, UniProt P08581). The procedure, abridged:
as §1

The target of another experiment is KDR (VEGFR2) (Homo sapiens, UniProt P35968). The procedure, abridged:
as §1

In a further experiment the target is FGFR4 (Homo sapiens, UniProt P22455). In outline: as §1
Experiment [1] has as its target PIK3CA/PIK3R1 (p110 alpha/p85 alpha) (Homo sapiens, UniProt P42336). The procedure, abridged:
as §1

The target in a further experiment is CSK (Homo sapiens, UniProt P41240). The procedure, abridged: as §1
CSK, sequence (P41240 whole entry): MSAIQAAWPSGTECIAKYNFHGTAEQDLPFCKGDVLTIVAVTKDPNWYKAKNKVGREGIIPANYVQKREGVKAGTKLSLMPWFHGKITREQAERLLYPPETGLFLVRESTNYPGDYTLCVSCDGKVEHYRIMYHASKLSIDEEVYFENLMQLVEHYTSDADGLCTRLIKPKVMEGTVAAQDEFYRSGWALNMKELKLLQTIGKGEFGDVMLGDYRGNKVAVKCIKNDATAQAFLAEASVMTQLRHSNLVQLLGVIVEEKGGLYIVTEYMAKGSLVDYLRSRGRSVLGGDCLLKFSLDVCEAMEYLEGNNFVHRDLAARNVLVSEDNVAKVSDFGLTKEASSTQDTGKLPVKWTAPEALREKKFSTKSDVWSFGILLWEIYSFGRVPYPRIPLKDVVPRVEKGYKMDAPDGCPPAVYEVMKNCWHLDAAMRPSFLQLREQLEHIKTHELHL
Another experiment concerns the target BTK (Homo sapiens, UniProt Q06187). The procedure, abridged: as §1
The target in a further experiment is FRAP1 (mTOR) (Homo sapiens, UniProt P42345). In outline:
as §1

For a further experiment, the target named is PIM1 (Homo sapiens, UniProt P11309). In outline:
as §1

The target in another experiment is T1, AMPK A1/B1/G1 (Homo sapiens, UniProt Q13131).
T1 construct: gene PRKAA1; A1/B1/G1
T1 sequence (Q13131 whole entry): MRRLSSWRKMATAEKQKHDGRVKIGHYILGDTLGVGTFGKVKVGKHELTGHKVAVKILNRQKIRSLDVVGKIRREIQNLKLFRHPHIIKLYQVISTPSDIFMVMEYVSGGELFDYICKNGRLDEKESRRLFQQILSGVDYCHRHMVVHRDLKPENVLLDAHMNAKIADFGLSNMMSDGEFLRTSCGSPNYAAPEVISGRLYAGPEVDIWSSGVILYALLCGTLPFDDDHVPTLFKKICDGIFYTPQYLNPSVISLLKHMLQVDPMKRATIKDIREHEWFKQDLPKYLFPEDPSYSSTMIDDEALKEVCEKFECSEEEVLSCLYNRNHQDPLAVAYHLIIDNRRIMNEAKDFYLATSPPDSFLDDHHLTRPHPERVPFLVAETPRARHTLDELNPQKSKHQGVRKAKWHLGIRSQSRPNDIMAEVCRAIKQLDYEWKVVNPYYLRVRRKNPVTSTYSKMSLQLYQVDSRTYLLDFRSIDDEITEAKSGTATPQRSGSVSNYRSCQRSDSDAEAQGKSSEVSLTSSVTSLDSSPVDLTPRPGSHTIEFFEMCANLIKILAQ
T1 sequence (P54619 whole entry partner): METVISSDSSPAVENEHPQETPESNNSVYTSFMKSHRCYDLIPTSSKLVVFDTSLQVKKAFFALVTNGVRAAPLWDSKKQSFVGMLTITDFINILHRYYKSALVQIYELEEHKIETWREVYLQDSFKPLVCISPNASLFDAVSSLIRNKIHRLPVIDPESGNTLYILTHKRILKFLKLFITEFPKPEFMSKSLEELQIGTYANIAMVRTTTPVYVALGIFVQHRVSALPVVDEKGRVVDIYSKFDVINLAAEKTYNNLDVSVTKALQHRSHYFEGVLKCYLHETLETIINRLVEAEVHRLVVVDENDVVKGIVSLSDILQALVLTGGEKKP
T1 sequence (Q9Y478 whole entry partner): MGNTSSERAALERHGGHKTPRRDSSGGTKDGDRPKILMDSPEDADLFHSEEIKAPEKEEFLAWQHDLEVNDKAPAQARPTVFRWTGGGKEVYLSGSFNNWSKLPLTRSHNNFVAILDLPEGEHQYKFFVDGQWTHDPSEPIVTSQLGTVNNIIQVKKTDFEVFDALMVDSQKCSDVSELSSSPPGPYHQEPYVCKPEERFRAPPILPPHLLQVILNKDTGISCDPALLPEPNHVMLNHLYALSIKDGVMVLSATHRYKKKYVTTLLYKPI
In outline:
as §1

A further experiment concerns the target MAPKAPK3 (Homo sapiens, UniProt Q16644). The procedure, abridged:
as §1

For the next experiment, the target named is PLK1 (Homo sapiens, UniProt P53350). The procedure, abridged:
as §1

The target in the next experiment is PRKD2 (PKD2) (Homo sapiens, UniProt Q9BZL6). In outline: as §1
The target of another experiment is ROCK1 (Homo sapiens, UniProt Q13464). In outline:
as §1

The target of a further experiment is FES (FPS) (Homo sapiens, UniProt P07332). In outline: as §1
In a further experiment the target is T2, CDK5/p35 (Homo sapiens, UniProt Q00535).
T2 construct: p35
The procedure, abridged: as §1

Another experiment addresses PRKCG (PKC gamma) (Homo sapiens, UniProt P05129). The procedure, abridged:
as §1

The next experiment deals with ABL1 (Homo sapiens, UniProt P00519). In outline: as §1
The target in the next experiment is DYRK1A (Homo sapiens, UniProt Q13627). In outline: as §1
In another experiment the target is HIPK4 (Homo sapiens, UniProt Q8NE63). In outline:
as §1

For another experiment, the target named is CHEK1 (CHK1) (Homo sapiens, UniProt O14757). In outline:
as §1

A further experiment has as its target PAK2 (PAK65) (Homo sapiens, UniProt Q13177). The procedure, abridged: as §1

PIM1, sequence (P11309 whole entry): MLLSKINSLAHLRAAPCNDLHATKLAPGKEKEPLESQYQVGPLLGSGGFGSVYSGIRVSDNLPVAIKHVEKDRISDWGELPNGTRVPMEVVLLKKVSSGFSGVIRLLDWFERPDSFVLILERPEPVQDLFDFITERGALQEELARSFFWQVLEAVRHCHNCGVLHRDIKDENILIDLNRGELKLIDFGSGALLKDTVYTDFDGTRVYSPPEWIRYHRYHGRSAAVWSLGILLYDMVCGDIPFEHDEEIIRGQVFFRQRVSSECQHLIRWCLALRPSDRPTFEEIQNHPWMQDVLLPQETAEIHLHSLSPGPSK
LCK, sequence (P06239 whole entry): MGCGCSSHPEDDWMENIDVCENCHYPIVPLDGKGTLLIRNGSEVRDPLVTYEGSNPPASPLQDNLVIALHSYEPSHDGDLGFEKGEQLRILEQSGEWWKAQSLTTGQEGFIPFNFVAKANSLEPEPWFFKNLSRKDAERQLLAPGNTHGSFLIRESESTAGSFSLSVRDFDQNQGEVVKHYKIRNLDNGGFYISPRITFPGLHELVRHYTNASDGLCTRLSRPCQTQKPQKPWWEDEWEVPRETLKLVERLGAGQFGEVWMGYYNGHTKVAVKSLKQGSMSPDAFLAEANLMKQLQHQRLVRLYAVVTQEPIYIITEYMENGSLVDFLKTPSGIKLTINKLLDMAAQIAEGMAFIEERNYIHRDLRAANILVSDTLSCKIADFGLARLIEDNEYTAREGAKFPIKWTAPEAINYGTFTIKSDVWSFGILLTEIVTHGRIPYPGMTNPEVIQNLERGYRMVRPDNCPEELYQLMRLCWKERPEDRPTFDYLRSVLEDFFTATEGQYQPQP
MET (cMet), sequence (P08581 whole entry): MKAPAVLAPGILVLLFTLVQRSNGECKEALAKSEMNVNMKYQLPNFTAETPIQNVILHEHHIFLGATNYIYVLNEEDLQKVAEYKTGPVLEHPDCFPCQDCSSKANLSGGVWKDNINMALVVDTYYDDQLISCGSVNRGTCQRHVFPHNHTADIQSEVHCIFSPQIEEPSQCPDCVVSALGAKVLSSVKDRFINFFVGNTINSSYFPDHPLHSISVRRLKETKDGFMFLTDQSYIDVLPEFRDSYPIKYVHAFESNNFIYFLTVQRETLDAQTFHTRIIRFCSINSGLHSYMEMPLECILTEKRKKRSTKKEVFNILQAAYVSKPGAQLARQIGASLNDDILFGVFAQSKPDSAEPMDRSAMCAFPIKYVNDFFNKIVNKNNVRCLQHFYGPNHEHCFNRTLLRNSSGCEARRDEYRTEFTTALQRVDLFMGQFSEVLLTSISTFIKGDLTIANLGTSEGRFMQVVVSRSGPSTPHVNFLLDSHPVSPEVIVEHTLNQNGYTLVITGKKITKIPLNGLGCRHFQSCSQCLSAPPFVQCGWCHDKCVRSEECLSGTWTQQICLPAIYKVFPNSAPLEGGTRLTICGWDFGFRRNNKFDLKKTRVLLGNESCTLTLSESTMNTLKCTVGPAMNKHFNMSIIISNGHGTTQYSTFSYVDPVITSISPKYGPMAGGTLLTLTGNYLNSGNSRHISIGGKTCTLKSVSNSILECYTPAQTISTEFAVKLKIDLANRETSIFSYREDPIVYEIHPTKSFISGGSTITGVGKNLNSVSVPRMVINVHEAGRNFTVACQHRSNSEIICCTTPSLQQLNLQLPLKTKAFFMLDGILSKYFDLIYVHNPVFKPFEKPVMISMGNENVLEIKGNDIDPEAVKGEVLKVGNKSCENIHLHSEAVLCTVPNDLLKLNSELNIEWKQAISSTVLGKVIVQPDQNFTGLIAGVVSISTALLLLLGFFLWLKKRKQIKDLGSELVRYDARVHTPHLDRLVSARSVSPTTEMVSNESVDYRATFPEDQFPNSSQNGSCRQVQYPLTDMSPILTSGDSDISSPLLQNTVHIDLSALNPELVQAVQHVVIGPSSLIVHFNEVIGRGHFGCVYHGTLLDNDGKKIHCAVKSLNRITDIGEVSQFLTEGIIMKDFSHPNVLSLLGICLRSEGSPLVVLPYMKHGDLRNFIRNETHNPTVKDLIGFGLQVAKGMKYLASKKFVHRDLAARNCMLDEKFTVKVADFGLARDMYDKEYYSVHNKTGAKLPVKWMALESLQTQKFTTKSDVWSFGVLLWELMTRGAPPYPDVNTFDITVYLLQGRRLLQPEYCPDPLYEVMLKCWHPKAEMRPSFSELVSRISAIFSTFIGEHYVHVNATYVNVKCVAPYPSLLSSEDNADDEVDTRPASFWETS
PAK2 (PAK65), sequence (Q13177 whole entry): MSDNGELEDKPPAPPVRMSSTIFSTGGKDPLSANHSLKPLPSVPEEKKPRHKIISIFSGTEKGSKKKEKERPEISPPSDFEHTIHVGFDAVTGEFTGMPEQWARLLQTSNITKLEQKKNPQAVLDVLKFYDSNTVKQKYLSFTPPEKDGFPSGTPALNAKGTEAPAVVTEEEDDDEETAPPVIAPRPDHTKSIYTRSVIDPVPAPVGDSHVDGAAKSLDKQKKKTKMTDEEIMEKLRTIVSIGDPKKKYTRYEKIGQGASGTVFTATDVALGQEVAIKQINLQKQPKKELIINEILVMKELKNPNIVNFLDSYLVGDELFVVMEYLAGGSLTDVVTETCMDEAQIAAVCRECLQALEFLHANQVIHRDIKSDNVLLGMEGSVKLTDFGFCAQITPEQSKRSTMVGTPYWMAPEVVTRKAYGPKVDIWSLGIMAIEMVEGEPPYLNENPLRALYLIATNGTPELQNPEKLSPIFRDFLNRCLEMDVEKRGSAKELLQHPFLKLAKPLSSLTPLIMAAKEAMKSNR
BTK, sequence (Q06187 whole entry): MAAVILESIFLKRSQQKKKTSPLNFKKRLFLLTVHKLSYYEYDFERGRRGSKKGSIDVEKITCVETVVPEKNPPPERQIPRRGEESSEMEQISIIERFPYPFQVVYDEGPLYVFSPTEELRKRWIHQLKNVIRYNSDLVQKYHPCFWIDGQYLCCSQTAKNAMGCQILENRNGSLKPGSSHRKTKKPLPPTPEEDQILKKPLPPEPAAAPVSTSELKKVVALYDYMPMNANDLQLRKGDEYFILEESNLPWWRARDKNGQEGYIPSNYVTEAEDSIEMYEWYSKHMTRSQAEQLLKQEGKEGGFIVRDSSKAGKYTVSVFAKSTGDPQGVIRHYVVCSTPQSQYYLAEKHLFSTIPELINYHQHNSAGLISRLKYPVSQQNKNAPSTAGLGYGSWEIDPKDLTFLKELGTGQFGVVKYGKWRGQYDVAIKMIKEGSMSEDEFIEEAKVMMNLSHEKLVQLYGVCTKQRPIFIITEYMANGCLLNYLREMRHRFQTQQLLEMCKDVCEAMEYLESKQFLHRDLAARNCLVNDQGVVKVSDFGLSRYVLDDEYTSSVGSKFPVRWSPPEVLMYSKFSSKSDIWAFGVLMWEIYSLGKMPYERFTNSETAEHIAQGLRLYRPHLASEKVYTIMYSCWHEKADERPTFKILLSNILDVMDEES

With `N#CCCNc1nccc(-c2cn(CC(F)F)nc2-c2cnc3[nH]ccc3c2)n1` [RAFi, PF-04880594], the inhibition at 1 µM was 15% on LCK; 12% on MET (cMet); 33% at KDR (VEGFR2); 5% at FGFR4; 35% in [1]; 1% on CSK. In addition, the inhibition at 1 µM on BTK was -7%; on FRAP1 (mTOR), -7%; on PIM1 it was 2%; at AMPK A1/B1/G1, 16%; at MAPKAPK3, 12%; at PLK1, 27%. Moreover, the inhibition at 1 µM on PRKD2 (PKD2) was 40%; at ROCK1, 4%; at FES (FPS) it was -11%; at CDK5/p35 it was 9%; at PRKCG (PKC gamma), -15%; at ABL1 it was 6%. Also, the inhibition at 1 µM is -12% on DYRK1A, 8% at HIPK4, 3% at CHEK1 (CHK1) and 3% on PAK2 (PAK65).
